Laboratory results as given in patent US20170304388A1, “NEW INDICATION OF CARDIOVASCULAR DRUGS FOR PREPARATION OF CANCER INHIBITION PHARMACEUTICAL COMPOSITION” (LAUNX BIOMEDICAL CO., LTD., priority 2014, published 2017).
Read-outs that look alike come from different tables or passages of the source.

How the values were obtained:
Assay type in all cases: cell-based
[1] = system: LoVo (Colorectal Adenocarcinoma); experiment: Cell viability analysis (WST-1), LoVo; settings: Homo sapiens, LoVo, 72 h
[2] = system: H1650 (Lung Adenocarcinoma); experiment: Cell viability analysis (WST-1), H1650; settings: Homo sapiens, NCI-H1650, 72 h
[3] = system: HeLa (Cervix Adenocarcinoma); experiment: Cell viability analysis (WST-1), HeLa; settings: Homo sapiens, HeLa, 72 h
[4] = system: TOV-21G; experiment: Cell viability analysis (WST-1), TOV-21G; settings: Homo sapiens, TOV21G, 72 h, Table 4, repeated experiments, drug 10 μM, read-out: survival rate (viability) of cancer cells, TOV-21G
How it was run: (§1)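 Wells receive 3000 cells, and the medium is swapped for drug at 10 μM. Seventy-two hours later, WST-1 reagent diluted 9:1 with medium is added, plates sit at 37° C for 30–90 minutes, and OD450 nm yields survival rate.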

[5] = system: T24; experiment: Cell viability analysis (WST-1), T24; settings: Homo sapiens, T-24, 72 h, Table 4, repeated experiments, drug 10 μM, read-out: survival rate (viability) of cancer cells, T24
How it was run: as §1

[6] = system: AGS (Gastric Adenocarcinoma); experiment: Cell viability analysis (WST-1), AGS; settings: 72 h

CCC(C)(C)C(=O)O[C@H]1C[C@@H](C)C=C2C=C[C@H](C)[C@H](CC[C@@H]3C[C@@H](O)CC(=O)O3)[C@H]21 [Simvastatin (Zocor), Simvastatin]
viability at 10 µM ([1]; Table 3, drug 10 μM, WST-1, OD450 nm, read-out: survival rate (viability) of cancer cells, LoVo): 99.9%
viability at 10 µM ([1]; Table 4, repeated experiments, drug 10 μM, WST-1, read-out: survival rate (viability) of cancer cells, LoVo): 89.3%
viability at 10 µM ([2]; Table 3, drug 10 μM, WST-1, OD450 nm, read-out: survival rate (viability) of cancer cells, H1650): 115%
viability at 10 µM ([2]; Table 4, repeated experiments, drug 10 μM, WST-1, read-out: survival rate (viability) of cancer cells, H1650): 79.8%
viability at 10 µM ([3]; Table 3, drug 10 μM, WST-1, OD450 nm, read-out: survival rate (viability) of cancer cells, HeLa): 104%
viability at 10 µM ([3]; Table 4, repeated experiments, drug 10 μM, WST-1, read-out: survival rate (viability) of cancer cells, HeLa): 100%
viability at 10 µM [4]: 63.6%
viability at 10 µM [5]: 89.6%
viability at 10 µM ([6]; Table 3, drug 10 μM, WST-1, OD450 nm, read-out: survival rate (viability) of cancer cells, AGS): 85.6%
viability at 10 µM ([6]; Table 4, repeated experiments, drug 10 μM, WST-1, read-out: survival rate (viability) of cancer cells, AGS): 81%
